The values that follow are results of earlier work, collected in patent US10016426B2, “Pharmaceutical compositions for substituted quinazolinones” (Resverlogix Corp., priority 2011, dated 2018).

The conditions of data set [1]: following oral administration; Gugler et al. (1975).
For the next data set, the system named is HDL-C level. The note with it: subjects with low HDL-C; Rubins et al. (1999).

For the molecule `O=c1c(O)c(-c2ccc(O)c(O)c2)oc2cc(O)cc(O)c12` [quercetin], the intestinal absorption entry in data set [1] is reported as “less than 1%”.

For `Cc1ccc(C)c(OCCCC(C)(C)C(=O)O)c1` [gemfibrozil], in the data set on HDL-C level, the “increase in the HDL-C level” value is 6% and the “reduction of the CHD risk” value is 22%.
